According to US9737502B2, “Calebin A for hepatic steatosis” (SAMI LABS LIMITED, priority 2011, dated 2017):
Marks after values point to notes of the source that are not given here.

Tests used:
TNF-α = experiment: Serum TNF-α in LPS-injected mice after 6 days oral treatment (ELISA); assay type: in vivo, Swiss albino mice; settings: graded doses, then LPS 1 mg/kg i.v., serum 90 min after LPS
Protocol: (§1) The present inventors also adduce study data on the ability of Calebin A to reduce expression of Extracellular TNF-α, IL-1 beta [FIG. 6] and IL-6 [FIG. 7] in serum from treated mice (in-vivo models). Swiss albino male mice aged 6-8 weeks were maintained at 22±2° C. under 12/12 h light dark cycle. Mice received oral treatment of test drugs at graded doses (w/v) for 6 days, followed by intravenous injection of 1 mg/kg of LPS according to the method described by Brieva A, Guerrero A, Alonso-Lebrero J L and Pivel J P. 2001. Immunoferon, a glycoconjugate of natural origin, inhibits LPS-induced TNF-α production and inflammatory responses. International Immunopharmacology 1, 1979-1987. Six mice were employed in each group and experiments were performed in triplicates. TNF-α, IL-1 beta and IL-6 production was evaluated by a commercial ELISA kits (R&D Systems) in serum from treated mice, 90 min after LPS injection. Rolipram at 30 mg/kg was used as standard drug.

IL-6 = experiment: Serum IL-6 in LPS-injected mice after 6 days oral treatment (ELISA); assay type: in vivo, Swiss albino mice; settings: graded doses, then LPS 1 mg/kg i.v., serum 90 min after LPS
Protocol: as §1

[1] = Study 2: body weight and liver weight in high fat diet induced obese mice; assay type: in vivo, C57 mice; settings: for LIVER WEIGHT: male group, Day 57, High fat diet Control 1.60 ± 0.35
Text: The animals were fed ad libitum with AMRUT Laboratory Animal Feed manufactured by Pranav Agro Industries Limited, Sangli, Maharastra throughout the acclimatization. Open Source Diet D12450B diet (with 10 kcal % Fat) and Open Source Diet D12492 High fat diet (with 60 kcal % Fat) manufactured by Research Diet Inc, USA procured from Indus Marketing, Hyderabad, Andhra Pradesh, INDIA was used for induction of obesity and the main study.
The animals were divided into 5 groups viz., Group 1, 2, 3, 4 and 5 consisting of 10 animals (5 male and 5 female) each.
The G1 Control group animals were fed with normal control diet feed D12450B containing 10 kcal % fat and the G2 to G5 group animals were fed with high fat diet feed D12492 containing 60 kcal % fat during the induction of obesity and during main study.
The main study was started after the induction of obesity. The 3 doses of Calebin A was administered to animals from Day 29 daily consecutively for a period of 28 days. The feeding of diets continued in the main study in a similar way as performed in induction of obesity. The G1 Control and G2 High fat diet control group animals were administered with 0.5% CMC (Carboxy Methyl Cellulose) while other group animals received test item from Day 29 to Day 56 of the study period. The dose volume of administration was maintained according to the weekly body weight of individual animals. The total duration of the study was 61 days (5 days Acclimatization period+28 days Induction of obesity+28 days Main study).
Individual animal body weights were recorded on the day of receipt on Day 1 and weekly (±1 day) thereafter during the study period.
Further, after completion of the study period (Day 57) the animals were humanely sacrificed by exposure to excess CO2 in gas chamber and organ weights were noted. The brain, thymus, liver, adrenals, kidneys (paired), spleen, heart and ovaries/testes (paired) from all animals were trimmed off any adherent tissue, as appropriate and weighed wet as soon as possible to avoid drying. While in general, there was no statistically significant difference in organ weights in males and females, organ specific improvements in weight, example for liver in the male group was observable (See TABLE X). […] It may be noted that Behnke, A. R. 1953. Lean body mass. A.M.A. Arch. Int. Med. 91, 585 indicates liver as an index of lean body mass promotion and H. F. Kraybill et al, J ANIM SCI 1954, 13:548-555 indicate that other visceral organs may also be equally predictive of lean body mass promotion. It is quite possible that statistical significance in terms of sustainable increase in organ weights without indications of toxicity may be achieved with a larger sample size (more number of tested animals) over extended testing periods.

Structure (SMILES): COc1cc(/C=C/C(=O)COC(=O)/C=C/c2ccc(O)c(OC)c2)ccc1O [Calebin A]
- expression of TNF-α in serum (TNF-α): effective in reducing
- expression of IL-6 in serum (IL-6): effective in reducing
- BODY WEIGHT ([1]; females, G3 5 mg/kg + High fat diet, Day 1 (obesity induction, before dosing)): 22.36 ± 0.65 grams
- BODY WEIGHT ([1]; females, G3 5 mg/kg + High fat diet, Day 8 (obesity induction, before dosing)): 23.18 ± 0.79 grams
- BODY WEIGHT ([1]; females, G3 5 mg/kg + High fat diet, Day 15 (obesity induction, before dosing)): 24.36 ± 0.87 grams
- BODY WEIGHT ([1]; females, G3 5 mg/kg + High fat diet, Day 22 (obesity induction, before dosing)): 25.66 ± 0.48 grams
- BODY WEIGHT ([1]; females, G3 5 mg/kg + High fat diet, Day 29 (start of daily dosing)): 27.40*^a ± grams
- BODY WEIGHT ([1]; females, G3 5 mg/kg + High fat diet, Day 36 (dosing Day 29-56)): 28.18**^a ± grams
- BODY WEIGHT ([1]; females, G3 5 mg/kg + High fat diet, Day 43 (dosing Day 29-56)): 28.46*^a,**^b ± grams
- BODY WEIGHT ([1]; females, G3 5 mg/kg + High fat diet, Day 50 (dosing Day 29-56)): 28.20***^b ± grams
- BODY WEIGHT ([1]; females, G3 5 mg/kg + High fat diet, Day 56 (dosing Day 29-56)): 28.12***^b ± grams
- BODY WEIGHT ([1]; females, G4 10 mg/kg + High fat diet, Day 1 (obesity induction, before dosing)): 23.16 ± 0.99 grams
- BODY WEIGHT ([1]; females, G4 10 mg/kg + High fat diet, Day 8 (obesity induction, before dosing)): 24.16 ± 1.29 grams
- BODY WEIGHT ([1]; females, G4 10 mg/kg + High fat diet, Day 15 (obesity induction, before dosing)): 25.62 ± 1.26 grams
- BODY WEIGHT ([1]; females, G4 10 mg/kg + High fat diet, Day 22 (obesity induction, before dosing)): 26.76 ± 1.27 grams
- BODY WEIGHT ([1]; females, G4 10 mg/kg + High fat diet, Day 29 (start of daily dosing)): 28.46***^a ± grams
- BODY WEIGHT ([1]; females, G4 10 mg/kg + High fat diet, Day 36 (dosing Day 29-56)): 28.64***^a ± grams
- BODY WEIGHT ([1]; females, G4 10 mg/kg + High fat diet, Day 43 (dosing Day 29-56)): 28.16*^a,***^b ± grams
- BODY WEIGHT ([1]; females, G4 10 mg/kg + High fat diet, Day 50 (dosing Day 29-56)): 27.54***^b ± grams
- BODY WEIGHT ([1]; females, G4 10 mg/kg + High fat diet, Day 56 (dosing Day 29-56)): 27.04***^b ± grams
- BODY WEIGHT ([1]; females, G5 20 mg/kg + High fat diet, Day 1 (obesity induction, before dosing)): 23.52 ± 1.10 grams
- BODY WEIGHT ([1]; females, G5 20 mg/kg + High fat diet, Day 8 (obesity induction, before dosing)): 24.66 ± 1.24 grams
- BODY WEIGHT ([1]; females, G5 20 mg/kg + High fat diet, Day 15 (obesity induction, before dosing)): 26.26 ^a ± 1.05 ^ grams
- BODY WEIGHT ([1]; females, G5 20 mg/kg + High fat diet, Day 22 (obesity induction, before dosing)): 27.26 ^a ± 1.25 ^ grams
- BODY WEIGHT ([1]; females, G5 20 mg/kg + High fat diet, Day 29 (start of daily dosing)): 28.74***^a ± grams
- BODY WEIGHT ([1]; females, G5 20 mg/kg + High fat diet, Day 36 (dosing Day 29-56)): 28.40**^a ± grams
- BODY WEIGHT ([1]; females, G5 20 mg/kg + High fat diet, Day 43 (dosing Day 29-56)): 27.80***^b ± grams
- BODY WEIGHT ([1]; females, G5 20 mg/kg + High fat diet, Day 50 (dosing Day 29-56)): 27.44***^b ± grams
- BODY WEIGHT ([1]; females, G5 20 mg/kg + High fat diet, Day 56 (dosing Day 29-56)): 27.10***^b ± grams
- effect on body weights of high fat diet induced obese animals ([1]; male and female C57 animals, 5, 10 and 20 mg/kg body weight): had an effect in decreasing the body weights
- LIVER WEIGHT ([1]; G3 5 mg/kg + High fat diet): 1.41 ± 0.17 g
- LIVER WEIGHT ([1]; G4 10 mg/kg + High fat diet): 1.25 ± 0.17 g
- LIVER WEIGHT ([1]; G5 20 mg/kg + High fat diet): 1.79 ± 0.19 g
- BODY WEIGHT ([1]; males, G3 5 mg/kg + High fat diet, Day 1 (obesity induction, before dosing)): 25.02 ± 1.45 grams
- BODY WEIGHT ([1]; males, G3 5 mg/kg + High fat diet, Day 8 (obesity induction, before dosing)): 25.78 ± 1.14 grams
- BODY WEIGHT ([1]; males, G3 5 mg/kg + High fat diet, Day 15 (obesity induction, before dosing)): 27.68 ± 0.95 grams
- BODY WEIGHT ([1]; males, G3 5 mg/kg + High fat diet, Day 22 (obesity induction, before dosing)): 29.98**^a ± 1.03 grams
- BODY WEIGHT ([1]; males, G3 5 mg/kg + High fat diet, Day 29 (start of daily dosing)): 30.92**^a ± grams
- BODY WEIGHT ([1]; males, G3 5 mg/kg + High fat diet, Day 36 (dosing Day 29-56)): 31.70*^a ± grams
- BODY WEIGHT ([1]; males, G3 5 mg/kg + High fat diet, Day 43 (dosing Day 29-56)): 30.84***^b ± grams
- BODY WEIGHT ([1]; males, G3 5 mg/kg + High fat diet, Day 50 (dosing Day 29-56)): 30.04***^b ± grams
- BODY WEIGHT ([1]; males, G3 5 mg/kg + High fat diet, Day 56 (dosing Day 29-56)): 29.98***^b ± grams
- BODY WEIGHT ([1]; males, G4 10 mg/kg + High fat diet, Day 1 (obesity induction, before dosing)): 25.28 ± 0.88 grams
- BODY WEIGHT ([1]; males, G4 10 mg/kg + High fat diet, Day 8 (obesity induction, before dosing)): 25.82 ± 0.91 grams
- BODY WEIGHT ([1]; males, G4 10 mg/kg + High fat diet, Day 15 (obesity induction, before dosing)): 27.58 ± 0.65 grams
- BODY WEIGHT ([1]; males, G4 10 mg/kg + High fat diet, Day 22 (obesity induction, before dosing)): 29.92**^a ± 0.97 grams
- BODY WEIGHT ([1]; males, G4 10 mg/kg + High fat diet, Day 29 (start of daily dosing)): 31.02**^a ± grams
- BODY WEIGHT ([1]; males, G4 10 mg/kg + High fat diet, Day 36 (dosing Day 29-56)): 31.06*^b ± grams
- BODY WEIGHT ([1]; males, G4 10 mg/kg + High fat diet, Day 43 (dosing Day 29-56)): 29.80***^b ± grams
- BODY WEIGHT ([1]; males, G4 10 mg/kg + High fat diet, Day 50 (dosing Day 29-56)): 28.98***^b ± grams
- BODY WEIGHT ([1]; males, G4 10 mg/kg + High fat diet, Day 56 (dosing Day 29-56)): 28.62***^b ± grams
- BODY WEIGHT ([1]; males, G5 20 mg/kg + High fat diet, Day 1 (obesity induction, before dosing)): 25.88 ± 1.25 grams
- BODY WEIGHT ([1]; males, G5 20 mg/kg + High fat diet, Day 8 (obesity induction, before dosing)): 26.66 ± 1.73 grams
- BODY WEIGHT ([1]; males, G5 20 mg/kg + High fat diet, Day 15 (obesity induction, before dosing)): 28.94*^a ± 1.59^ grams
- BODY WEIGHT ([1]; males, G5 20 mg/kg + High fat diet, Day 22 (obesity induction, before dosing)): 30.64**^a ± 1.16 grams
- BODY WEIGHT ([1]; males, G5 20 mg/kg + High fat diet, Day 29 (start of daily dosing)): 31.86***^a ± grams
- BODY WEIGHT ([1]; males, G5 20 mg/kg + High fat diet, Day 36 (dosing Day 29-56)): 31.48*^b ± grams
- BODY WEIGHT ([1]; males, G5 20 mg/kg + High fat diet, Day 43 (dosing Day 29-56)): 29.12***^b ± grams
- BODY WEIGHT ([1]; males, G5 20 mg/kg + High fat diet, Day 50 (dosing Day 29-56)): 27.74***^b ± grams
- BODY WEIGHT ([1]; males, G5 20 mg/kg + High fat diet, Day 56 (dosing Day 29-56)): 27.54***^b ± grams
